Data from publication doi:10.1101/2024.07.10.602960v2, “Contrasting Kinetics of Highly Similar Chloroalkane Reductive Dehalogenases” (biorxiv, 2024).
Like-named read-outs stand apart in the source and are kept apart here.

Key:
AcdA [1] = test system: T1, AcdA; assay: GC-FID product formation in gas-tight syringe, […] min; Michaelis-Menten fit; type: biochemical, Dehalobacter sp.; conditions: 50 mM Tris-HCl pH 7.5, 1 mM methyl viologen, 5 mM Ti(III) citrate, anaerobic, 24 °C
T1 construct: expressed from p15TVL-acdA with pBAD42-BtuCEDFB in E. coli BL21(DE3) suf strain; partially purified; 48 kDa; cobamide and two iron-sulfur clusters

TmrA [2] = target: T2, TmrA (Dehalobacter sp. UNSWDHB, UniProt T0I6H2); assay: GC-FID, total consumption in gas-tight syringe, […] min; substrate-inhibition Michaelis-Menten fit; type: biochemical; conditions: 50 mM Tris-HCl pH 7.5, 1 mM methyl viologen, 5 mM Ti(III) citrate, anaerobic, 24 °C
T2 construct: expressed from p15TVL-tmrA with pBAD42-BtuCEDFB in E. coli BL21(DE3) suf strain; partially purified; 48 kDa; cobamide and two iron-sulfur clusters
T2 sequence (T0I6H2 51-456): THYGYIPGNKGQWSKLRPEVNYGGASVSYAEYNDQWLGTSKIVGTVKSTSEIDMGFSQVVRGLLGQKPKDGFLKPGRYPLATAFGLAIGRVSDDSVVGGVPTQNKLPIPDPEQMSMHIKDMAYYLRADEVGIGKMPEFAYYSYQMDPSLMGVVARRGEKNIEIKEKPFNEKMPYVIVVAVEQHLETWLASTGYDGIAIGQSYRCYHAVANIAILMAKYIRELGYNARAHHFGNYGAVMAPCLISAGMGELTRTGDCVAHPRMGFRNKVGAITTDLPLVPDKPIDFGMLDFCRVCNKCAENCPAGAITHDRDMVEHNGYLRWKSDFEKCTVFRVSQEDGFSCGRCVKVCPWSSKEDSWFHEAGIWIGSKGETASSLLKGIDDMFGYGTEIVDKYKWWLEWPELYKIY

CfrA [3] = target: T3, CfrA (Dehalobacter sp. CF, UniProt K4LFB7); assay: as above; type: biochemical; conditions: 50 mM Tris-HCl pH 7.5, 1 mM methyl viologen, 5 mM Ti(III) citrate, anaerobic, 24 °C
T3 construct: expressed from p15TVL-cfrA with pBAD42-BtuCEDFB in E. coli BL21(DE3) suf strain; partially purified; 48 kDa; cobamide and two iron-sulfur clusters

AcdA [4] = test system: T1, AcdA; assay: as above; type: biochemical, Dehalobacter sp.; conditions: 50 mM Tris-HCl pH 7.5, 1 mM methyl viologen, 5 mM Ti(III) citrate, anaerobic, 24 °C
AcdA [5] = target: T1, AcdA; assay: as above; type: biochemical, Dehalobacter sp.; conditions: 50 mM Tris-HCl pH 7.5, 1 mM methyl viologen, 5 mM Ti(III) citrate, anaerobic, 24 °C; remark: listed apart in the source
AcdA [6] = conditions: 50 mM Tris-HCl pH 7.5, 1 mM methyl viologen, 5 mM Ti(III) citrate, anaerobic, 24 °C; substrate inhibition
AcdA [7] = conditions: 50 mM Tris-HCl pH 7.5, 1 mM methyl viologen, 5 mM Ti(III) citrate, anaerobic, 24 °C
TmrA [8] = target: T2, TmrA; assay: inhibition of chloroform dechlorination, GC-FID, […] min; single TCE concentration fit; type: biochemical; conditions: uncompetitive; chloroform as substrate, about 45 µM TCE, 50 mM Tris-HCl pH 7.5, 1 mM methyl viologen, Ti(III) citrate, 20 °C
CfrA [9] = target: T4, CfrA (Dehalobacter sp. CF, UniProt K4LFB7); assay: as above; type: biochemical; conditions: uncompetitive; chloroform as substrate, about […] TCE, […] Tris-HCl pH […] methyl viologen, Ti(III) citrate, […] °C
T4 construct: expressed from p15TVL-cfrA with pBAD42-BtuCEDFB in E. coli BL21(DE3) suf strain; partially purified; 48 kDa; cobamide and two iron-sulfur clusters
T4 sequence (K4LFB7 43-456 limits assumed): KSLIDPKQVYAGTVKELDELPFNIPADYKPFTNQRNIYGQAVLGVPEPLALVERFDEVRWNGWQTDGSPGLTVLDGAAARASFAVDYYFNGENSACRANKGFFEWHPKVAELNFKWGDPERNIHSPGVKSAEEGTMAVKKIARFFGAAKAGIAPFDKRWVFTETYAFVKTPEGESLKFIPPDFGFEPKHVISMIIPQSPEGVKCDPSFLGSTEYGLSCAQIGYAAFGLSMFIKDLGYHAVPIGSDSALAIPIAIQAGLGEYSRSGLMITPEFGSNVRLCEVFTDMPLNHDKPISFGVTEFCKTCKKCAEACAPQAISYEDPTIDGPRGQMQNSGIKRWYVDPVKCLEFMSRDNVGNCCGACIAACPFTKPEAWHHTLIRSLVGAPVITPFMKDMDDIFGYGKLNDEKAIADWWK

With `CC(Cl)(Cl)Cl` [1,1,1-trichloroethane] the Km (AcdA [1]) was 280 ± 100 µM.
`ClCC(Cl)Cl` [1,1,2-trichloroethane] was tested, and the “KI,TCA” value (TmrA [2]) was 6.2 ± 3.7 mM, the “KI,TCA” value (CfrA [3]) was 7.1 ± 4.4 mM and the Km (AcdA [4]) was 120 ± 20 µM. For the same compound, the “KI,TCA” value (AcdA [5]) was 2 ± 0.55 mM.
With `ClC(Cl)Cl` [chloroform] the “KI,CF” value (AcdA [6]) was 0.61 ± 0.24 mM and the Km (AcdA [7]) was 29 ± 8 µM.
For `ClC=C(Cl)Cl` [trichloroethene], the “KI,TCE” value (TmrA [8]) was “All three enzymes showed better model fits with uncompetitive inhibition” and the “KI,TCE” value (CfrA [9]) was “All three enzymes showed better model fits with uncompetitive inhibition”.
